Literature values as cited in patent US10351593B2, “Derivatives of dolastatin 10 and uses thereof” (NewBio Therapeutics, Inc., priority 2015, dated 2019).
pIC50: −log10 of the molar value.

Tested on: human carcinoma lines

COc1cccc2c1C(=O)c1c(O)c3c(c(O)c1C2=O)C[C@@](O)(C(=O)CO)C[C@@H]3O[C@H]1C[C@H](N)[C@H](O)[C@H](C)O1 [doxorubicin]
pIC50: 6.70 to 7.00
